Here are results for 27 compounds from patent publication US7473790B2 (Pfizer Inc., priority 2003, dated 2009).

Each structure is given as a SMILES string.

The target in the first test is T1, HCV polymerase (Hepatitis C virus genotype 1b, UniProt P26663).
T1 construct: 2.5 pmoles (0.15 μg) HCV polymerase protein in a final volume of 75 μL
T1 sequence (P26663 2420-3010): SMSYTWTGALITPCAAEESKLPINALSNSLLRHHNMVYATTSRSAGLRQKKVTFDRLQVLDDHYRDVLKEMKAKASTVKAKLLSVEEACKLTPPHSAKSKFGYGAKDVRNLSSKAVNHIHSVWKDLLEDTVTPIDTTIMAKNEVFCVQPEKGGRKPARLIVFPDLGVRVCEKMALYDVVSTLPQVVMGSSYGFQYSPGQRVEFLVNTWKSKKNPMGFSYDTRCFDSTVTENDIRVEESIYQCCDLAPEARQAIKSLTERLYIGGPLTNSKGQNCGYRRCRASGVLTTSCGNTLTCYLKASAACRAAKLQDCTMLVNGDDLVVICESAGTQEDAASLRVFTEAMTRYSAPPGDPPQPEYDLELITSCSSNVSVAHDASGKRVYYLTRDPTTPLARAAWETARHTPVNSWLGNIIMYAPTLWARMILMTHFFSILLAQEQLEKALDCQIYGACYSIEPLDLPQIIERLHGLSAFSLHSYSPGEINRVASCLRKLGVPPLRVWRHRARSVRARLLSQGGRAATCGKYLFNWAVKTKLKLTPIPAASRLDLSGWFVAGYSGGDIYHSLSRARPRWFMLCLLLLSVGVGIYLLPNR
Description: HCV polymerase primer/template-directed transcription assay (32P-GTP incorporation, filter binding). The test is classed as biochemical. As to conditions: @ 50 uM compound; given where IC50 was impractical to calculate; read-out: percent inhibition. The essentials:
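Recombinant genotype 1b polymerase (30 nM) extended biotin-dG12 primer on poly(rC)300 template with 1 μM GTP plus α-32P-GTP, pH 7.2, 10 mM MgCl2, 30 min at 30° C, 1% DMSO final. Products captured on DE filters and counted. IC50 fitted from triplicate cpm, with a tight-binding correction applied below 200 nM.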
As to `Cc1cc(C)n2nc(CC3=C(O)CC(CCC(=O)NC4CCN(C(=O)OC(C)(C)C)CC4)(C4CCCC4)OC3=O)nc2n1` (stereo not drawn) [B(109), 4-{3-[2-Cyclopentyl-5-(5,7-dimethyl-[1,2,4]triazolo[1,5-a]pyrimidin-2-ylmethyl)-4-hydroxy-6-oxo-3,6-dihydro-2H-pyran-2-yl]-propionylamino}-piperidine-1-carboxylic acid tert-butyl ester], the inhibition (commonly the relative decrease from the control value, in per cent) at 50 µM was 23%.

Still in this test, the particulars now being: compound concentration not given.
As for `Cc1cc(C)n2nc(CC3=C(O)CC(CCc4ccc(O)c(C(C)C)c4)(C4CCCC4)OC3=O)nc2n1` (stereo not drawn) [B(94), 6-Cyclopentyl-3-(5,7-dimethyl-[1,2,4]triazolo[1,5-a]pyrimidin-2-ylmethyl)-4-hydroxy-6-[2-(4-hydroxy-3-isopropyl-phenyl)-ethyl]-5,6-dihydro-pyran-2-one], the percent inhibition is recorded as 1%.

The same test, now with this note: recombinant HCV polymerase; 30 minutes at 30° C.; concentration giving 50% inhibition of polymerase-directed transcription; read-out: IC50.
Turning to `COc1ccc(CCC2(C3CCCC3)CC(=O)C(Cc3cn4cccnc4n3)C(=O)O2)cc1Cl` (stereo not drawn) [B(83), 6-[2-(3-chloro-4-methoxyphenyl)ethyl]-6-cyclopentyl-3-(imidazo[1,2-a]pyrimidin-2-ylmethyl)dihydro-2H-pyran-2,4(3H)-dione], the IC50 (in general, the concentration at which inhibition is half-maximal) came out at 0.36 µM.
On the same count and under the same terms, the value for `COc1ccc(CCC2(C3CCCC3)CC(=O)C(Cc3nc4ccccc4n3C)C(=O)O2)cc1Cl` (stereo not drawn) [B(84), 6-[2-(3-chloro-4-methoxyphenyl)ethyl]-6-cyclopentyl-3-[(1-methyl-1H-benzimidazol-2-yl)methyl]dihydro-2H-pyran-2,4(3H)-dione] was 0.11 µM; that for `COc1ccc(CCC2(C3CCCC3)CC(=O)C(Cc3ccc4ccccc4n3)C(=O)O2)cc1Cl` (stereo not drawn) [B(85), 6-[2-(3-chloro-4-methoxyphenyl)ethyl]-6-cyclopentyl-3-(quinolin-2-ylmethyl)dihydro-2H-pyran-2,4(3H)-dione] was 0.74 µM; that for `COc1ccc(CCC2(C3CCCC3)CC(O)=C(C(=O)Cc3cc(C)no3)C(=O)O2)c(OC)c1` (stereo not drawn) [B(86), 6-Cyclopentyl-6-[2-(2,4-dimethoxy-phenyl)-ethyl]-4-hydroxy-3-[2-(3-methyl-isoxazol-5-yl)-acetyl]-5,6-dihydro-pyran-2-one] was 22.1 µM.
On the same count and under the same terms, the value for `COc1ccc(CCC2(C3CCCC3)CC(O)=C(C(=O)Cc3ccccn3)C(=O)O2)cc1Cl` (stereo not drawn) [B(87), 6-[2-(3-Chloro-4-methoxy-phenyl)-ethyl]-6-cyclopentyl-4-hydroxy-3-(2-pyridin-2-yl-acetyl)-5,6-dihydro-pyran-2-one] was 1.8 µM.
On to `COc1ccc(CCC2(C3CCCC3)CC(O)=C(C(C)=O)C(=O)O2)cc1Cl` (stereo not drawn) [B(88), 3-Acetyl-6-[2-(3-chloro-4-methoxy-phenyl)-ethyl]-6-cyclopentyl-4-hydroxy-5,6-dihydro-pyran-2-one], for which the 50% inhibitory concentration (IC50) stood at 5.1 µM.
Consider `Cc1csc2nc(CC3=C(O)CC(CCc4ccc(C(F)F)c(F)c4)(C4CCCC4)OC3=O)cc(=O)n12` (stereo not drawn) [B(89), 7-[(6-Cyclopentyl-6-{2-[4-(difluoromethyl)-3-fluorophenyl]ethyl}-4-hydroxy-2-oxo-5,6-dihydro-2H-pyran-3-yl)methyl]-3-methyl-5H-[1,3]thiazolo[3,2-a]pyrimidin-5-one], for which the IC50 was 0.185 µM.
The same measure, in the same setting: the value for `COc1cc(OC)c(CCC2(C3CCCC3)CC(O)=C(Cc3cn4cccnc4n3)C(=O)O2)cc1Cl` (stereo not drawn) [B(90), 6-[2-(5-chloro-2,4-dimethoxyphenyl)ethyl]-6-cyclopentyl-4-hydroxy-3-(imidazo[1,2-a]pyrimidin-2-ylmethyl)-5,6-dihydro-2H-pyran-2-one] was 0.006 µM; that for `CCc1cc(CCC2(C3CCCC3)CC(=O)C(Cc3nc4nc(C)cc(C)n4n3)C(=O)O2)ccc1N(C)S(C)(=O)=O` (stereo not drawn) [B(91), 6N-[4-(2-{2-cyclopentyl-5-[(5,7-dimethyl[1,2,4]triazolo[1,5-a]pyrimidin-2-yl)methyl]-4,6-dioxotetrahydro-2H-pyran-2-yl}ethyl)-2-ethylphenyl]-N-methylmethanesulfonamide] was 0.01 µM.
The same measure, in the same setting: the value for `Cn1ccc2cc(CC3=C(O)CC(CCc4ccc(C(C)(C)C#N)c(F)c4)(C4CCCC4)OC3=O)ccc21` (stereo not drawn) [B(92), 2-[4-(2-{2-cyclopentyl-4-hydroxy-5-[(1-methyl-1H-indol-5-yl)methyl]-6-oxo-3,6-dihydro-2H-pyran-2-yl}ethyl)-2-fluorophenyl]-2-methylpropanenitrile] was 0.008 µM; that for `CC(C)(C#N)c1ccc(CCC2(C3CCCC3)CC(O)=C(Cc3cn[nH]c3)C(=O)O2)cc1F` (stereo not drawn) [B(93), 2-(4-{2-[2-cyclopentyl-4-hydroxy-6-oxo-5-(1H-pyrazol-4-ylmethyl)-3,6-dihydro-2H-pyran-2-yl]ethyl}-2-fluorophenyl)-2-methylpropanenitrile] was 0.09 µM; that for `Cc1cc(C)n2nc(CC3=C(O)CC(CCc4ccc(O)c(Cl)c4)(C4CCCC4)OC3=O)nc2n1` (stereo not drawn) [B(95), 6-[2-(3-Chloro-4-hydroxy-phenyl)-ethyl]-6-cyclopentyl-3-(5,7-dimethyl-[1,2,4]triazolo[1,5-a]pyrimidin-2-ylmethyl)-4-hydroxy-5,6-dihydro-pyran-2-one] was 0.013 µM.
Same read-out and setting: the value for `CCc1cc(CCC2(C3CCCC3)CC(O)=C(Cc3nc4nc(C)cc(C)n4n3)C(=O)O2)ccc1OC` (stereo not drawn) [B(96), 6-Cyclopentyl-3-(5,7-dimethyl-[1,2,4]triazolo[1,5-a]pyrimidin-2-ylmethyl)-6-[2-(3-ethyl-4-methoxy-phenyl)-ethyl]-4-hydroxy-5,6-dihydro-pyran-2-one] was 0.005 µM; that for `CCc1cc(CCC2(C3CCCC3)CC(O)=C(Cc3nc4nc(C)cc(C)n4n3)C(=O)O2)cc(Cl)c1OC` (stereo not drawn) [B(97), 6-[2-(3-Chloro-5-ethyl-4-methoxy-phenyl)-ethyl]-6-cyclopentyl-3-(5,7-dimethyl-[1,2,4]triazolo[1,5-a]pyrimidin-2-ylmethyl)-4-hydroxy-5,6-dihydro-pyran-2-one] was 0.009 µM.
`CCc1ccc(OC)c(CCC2(C3CCCC3)CC(O)=C(Cc3nc4nc(C)cc(C)n4n3)C(=O)O2)c1` (stereo not drawn) [B(98), 6-Cyclopentyl-3-(5,7-dimethyl-[1,2,4]triazolo[1,5-a]pyrimidin-2-ylmethyl)-6-[2-(5-ethyl-2-methoxy-phenyl)-ethyl]-4-hydroxy-5,6-dihydro-pyran-2-one]: the IC50 was 0.006 µM.
As to `CCOc1ccc(CCC2(C3CCCC3)CC(O)=C(Cc3nc4nc(C)cc(C)n4n3)C(=O)O2)cc1CC` (stereo not drawn) [B(99), 6-Cyclopentyl-3-(5,7-dimethyl-[1,2,4]triazolo[1,5-a]pyrimidin-2-ylmethyl)-6-[2-(4-ethoxy-3-ethyl-phenyl)-ethyl]-4-hydroxy-5,6-dihydro-pyran-2-one], the IC50 was found to be 0.35 µM.
Still for that read-out and setting: the value for `CCc1cc(CCC2(C3CCCC3)CC(O)=C(Cc3nc4nc(C)cc(C)n4n3)C(=O)O2)cc(Cl)c1O` (stereo not drawn) [B(100), 6-[2-(3-Chloro-5-ethyl-4-hydroxy-phenyl)-ethyl]-6-cyclopentyl-3-(5,7-dimethyl-[1,2,4]triazolo[1,5-a]pyrimidin-2-ylmethyl)-4-hydroxy-5,6-dihydro-pyran-2-one] was 0.003 µM.
On the same count and under the same terms, the value for `CCc1cc(CCC2(C3CCCC3)CC(=O)CC(=O)O2)cc(Cl)c1O` (stereo not drawn) [B(101), 6-[2-(3-Chloro-5-ethyl-4-hydroxy-phenyl)-ethyl]-6-cyclopentyl-dihydro-pyran-2,4-dione] was 0.61 µM; that for `CCc1cc(CCC2(C3CCCC3)CC(O)=C(Cc3nc4nc(C)cc(C)n4n3)C(=O)O2)ccc1OC(C)C` (stereo not drawn) [B(102), 6-Cyclopentyl-3-(5,7-dimethyl-[1,2,4]triazolo[1,5-a]pyrimidin-2-ylmethyl)-6-[2-(3-ethyl-4-isopropoxy-phenyl)-ethyl]-4-hydroxy-5,6-dihydro-pyran-2-one] was 0.5 µM; that for `COc1ccc(CCC2(C3CCCC3)CC(O)=C(Cc3nc4nc(C)cc(C)n4n3)C(=O)O2)c(F)c1` (stereo not drawn) [B(103), 6-Cyclopentyl-3-(5,7-dimethyl-[1,2,4]triazolo[1,5-a]pyrimidin-2-ylmethyl)-6-[2-(2-fluoro-4-methoxy-phenyl)-ethyl]-4-hydroxy-5,6-dihydro-pyran-2-one] was 0.107 µM.
On the same count and under the same terms, the value for `CCc1cc(CCC2(C3CCCC3)CC(O)=C(Cc3nc4nc(C)cc(C)n4n3)C(=O)O2)ccc1OCCO` (stereo not drawn) [B(104), 6-Cyclopentyl-3-(5,7-dimethyl-[1,2,4]triazolo[1,5-a]pyrimidin-2-ylmethyl)-6-{2-[3-ethyl-4-(2-hydroxy-ethoxy)-phenyl]-ethyl}-4-hydroxy-5,6-dihydro-pyran-2-one] was 0.003 µM; that for `Cc1cc(C)n2nc(CC3=C(O)CC(CCc4ccc(O)c(F)c4)(C4CCCC4)OC3=O)nc2n1` (stereo not drawn) [B(105), 6-Cyclopentyl-3-(5,7-dimethyl-[1,2,4]triazolo[1,5-a]pyrimidin-2-ylmethyl)-6-[2-(3-fluoro-4-hydroxy-phenyl)-ethyl]-4-hydroxy-5,6-dihydro-pyran-2-one] was 0.046 µM; that for `COc1ccc(CCC2(C3CCCC3)CC(O)=C(Cc3nc4nc(C)cc(C)n4n3)C(=O)O2)cc1C1CC1` (stereo not drawn) [B(107), 6-Cyclopentyl-6-[2-(3-cyclopropyl-4-methoxy-phenyl)-ethyl]-3-(5,7-dimethyl-[1,2,4]triazolo[1,5-a]pyrimidin-2-ylmethyl)-4-hydroxy-5,6-dihydro-pyran-2-one] was 0.006 µM.
On to `CCc1cc(CCC2(C3CCCC3)CC(O)=C(Cc3nc[nH]c3C)C(=O)O2)ccc1O` (stereo not drawn) [B(110), 6-Cyclopentyl-6-[2-(3-ethyl-4-hydroxy-phenyl)-ethyl]-4-hydroxy-3-(5-methyl-1H-imidazol-4-ylmethyl)-5,6-dihydro-pyran-2-one], for which the IC50 worked out at 0.107 µM.
Still for that read-out and setting: the value for `CCc1nc(CC2=C(O)CC(CCc3ccc(O)c(CC)c3)(C3CCCC3)OC2=O)c(C)[nH]1` (stereo not drawn) [B(111), 6-Cyclopentyl-6-[2-(3-ethyl-4-hydroxy-phenyl)-ethyl]-3-(2-ethyl-5-methyl-1H-imidazol-4-ylmethyl)-4-hydroxy-5,6-dihydro-pyran-2-one] was 0.321 µM.
